We go through five compounds from ChEMBL document CHEMBL1157056, “Synthesis and anti-inflammatory evaluation of some condensed [4-(3,4-dimethylphenyl)-1(2H)-oxo-phthalazin-2-yl]acetic acid hydrazide” (Eur J Med Chem, 2010).

Active and inactive are the calls of the source. The calls are words filed in the database; no cut-off is given here.

The assay relates to Rattus norvegicus. As to the kind of experiment: Antiinflammatory activity in rat at 20 mg/kg, ip after 10 days by sponge implantation method. In kind it is functional, organism-based. The arrangement: dose 20 mg/kg.
As for `Cc1ccc(-c2nn(Cc3n[nH]c(=S)o3)c(=O)c3ccccc23)cc1C`, the result was Active.

As for `CC1=NN(C(=O)Cn2nc(-c3ccc(C)c(C)c3)c3ccccc3c2=O)C(=O)C1`, the result was Active.

In the case of `Cc1ccc(-c2nn(CC(=O)N/N=C/NN)c(=O)c3ccccc23)cc1C`, the result was Active. For `Cc1ccc(-c2nn(CC(=O)NNC(=S)NCc3ccccc3)c(=O)c3ccccc23)cc1C` the value was “Active”; for `CCO/C=N/NC(=O)Cn1nc(-c2ccc(C)c(C)c2)c2ccccc2c1=O`, “Active”.
